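Growth conditions: 96-well plates. Treatment: test compound, 48 hours, 5 concentrations. Analysis: linear interpolation between bracketing concentrations; unreached endpoints set to highest concentration. GI50 = concentration required for 50% inhibition of growth. TGI marks complete inhibition of growth.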
Tests used:
Test in all cases: inhibition of tumour cell growth, NCI panel, 48 h
[1] = system: MDA-MB-468 breast
[2] = system: 786-0 renal
[3] = system: A498 renal
[4] = system: A549 NSCLC
[5] = system: ACHN renal
[6] = system: BT-549 breast
[7] = system: CAKI-1 renal
[8] = system: CCRF-CEM leukemia
[9] = system: COLO 205 colon
[10] = system: DU-145 prostate
[11] = system: EKVX NSCLC
[12] = system: HCC-2998 colon
[13] = system: HCT-116 colon
[14] = system: HCT-15 colon
[15] = system: HL-60(TB) leukemia
[16] = system: HOP-62 NSCLC
[17] = system: HOP-92 NSCLC
[18] = system: HS 578T breast
[19] = system: HT29 colon
[20] = system: IGROV1 ovarian
[21] = system: K-562 leukemia
[22] = system: KM12 colon
[23] = system: LOX IMVI melanoma
[24] = system: M14 melanoma
[25] = system: MALME-3M melanoma
[26] = system: MCF7 breast
[27] = system: MDA-MB-435
[28] = system: MOLT-4 leukemia
[29] = system: NCI-H226 lung
[30] = system: NCI-H23 lung
[31] = system: NCI-H460 lung
[32] = system: NCI-H522 lung
[33] = system: NCI/ADR-RES ovarian
[34] = system: OVCAR-3 ovarian
[35] = system: OVCAR-4 ovarian
[36] = system: OVCAR-5 ovarian
[37] = system: OVCAR-8 ovarian
[38] = system: PC-3 prostate
[39] = system: RPMI-8226 leukemia
[40] = system: RXF 393 renal
[41] = system: SF-268 CNS
[42] = system: SF-295 CNS
[43] = system: SF-539 CNS
[44] = system: SK-MEL-28 melanoma
[45] = system: SK-MEL-5 melanoma
[46] = system: SK-OV-3 ovarian
[47] = system: SN12C renal
[48] = system: SNB-19 CNS
[49] = system: SR leukemia
[50] = system: SW-620 colon
[51] = system: T-47D breast
[52] = system: TK-10 renal
[53] = system: U251 CNS
[54] = system: UACC-257 melanoma
[55] = system: UACC-62 melanoma

## O=C1C(=O)c2c(nc3ncccn23)-c2ccccc21
[1]
  GI50: 0.205 µM
  TGI: 0.555 µM

## COc1ccc(C(=O)N/N=C/c2ccc(O)cc2O)cc1Nc1ccnc(C(F)(F)F)c1
[1]
  GI50: 0.365 µM
  TGI: 68.1 µM

## CS(=O)(=O)Nc1ccc(-c2ccc3c(c2)ncn3-c2ccc(NC(=O)Nc3ccc(Br)cc3)cc2)cc1
[2]
  GI50: 2.25 µM
  TGI: 16 µM
[3]
  GI50: 3.42 µM
  TGI: 21.5 µM
[4]
  GI50: 2.44 µM
  TGI: > 72.3 µM
[5]
  GI50: 2.55 µM
  TGI: 12.3 µM
[6]
  GI50: 2.64 µM
  TGI: 12.8 µM
[7]
  GI50: 6 µM
  TGI: > 72.3 µM
[8]
  GI50: 2.12 µM
  TGI: 7.23 µM
[9]
  GI50: 2.59 µM
  TGI: > 72.3 µM
[10]
  GI50: 3.36 µM
  TGI: > 72.3 µM
[11]
  GI50: 2.4 µM
  TGI: > 72.3 µM
[12]
  GI50: 3.32 µM
  TGI: > 72.3 µM
[13]
  GI50: 2.33 µM
  TGI: > 72.3 µM
[14]
  GI50: 2.4 µM
  TGI: > 72.3 µM
[15]
  GI50: 1.49 µM
  TGI: 3.33 µM
[16]
  GI50: 2.54 µM
  TGI: 13 µM
[17]
  GI50: 3.39 µM
  TGI: > 72.3 µM
[18]
  GI50: 2.42 µM
  TGI: > 72.3 µM
[19]
  GI50: 2.43 µM
  TGI: > 72.3 µM
[20]
  GI50: 3.17 µM
  TGI: > 72.3 µM
[21]
  GI50: 1.88 µM
  TGI: 4.91 µM
[22]
  GI50: 0.336 µM
  TGI: > 72.3 µM
[23]
  GI50: 2.64 µM
  TGI: 44.3 µM
[24]
  GI50: 2.36 µM
  TGI: > 72.3 µM
[25]
  GI50: 1.95 µM
  TGI: 5.94 µM
[26]
  GI50: 1.81 µM
  TGI: 7.89 µM
[27]
  GI50: 2.62 µM
  TGI: > 72.3 µM
[1]
  GI50: 2.26 µM
  TGI: 10.9 µM
[28]
  GI50: 1.37 µM
  TGI: 4.31 µM
[29]
  GI50: 3.08 µM
  TGI: > 72.3 µM
[30]
  GI50: 2.57 µM
  TGI: > 72.3 µM
[31]
  GI50: 2.64 µM
  TGI: > 72.3 µM
[32]
  GI50: 2.11 µM
  TGI: 31.2 µM
[33]
  GI50: 10.8 µM
  TGI: > 72.3 µM
[34]
  GI50: 2.76 µM
  TGI: > 72.3 µM
[35]
  GI50: 3.13 µM
  TGI: > 72.3 µM
[36]
  GI50: 3.4 µM
  TGI: > 72.3 µM
[37]
  GI50: 2.81 µM
  TGI: > 72.3 µM
[38]
  GI50: 2.69 µM
  TGI: > 72.3 µM
[39]
  GI50: 1.52 µM
  TGI: 3.85 µM
[40]
  GI50: 1.16 µM
  TGI: 4.56 µM
[41]
  GI50: 3.41 µM
  TGI: > 72.3 µM
[42]
  GI50: 1.57 µM
  TGI: 4.41 µM
[43]
  GI50: 0.83 µM
  TGI: 7.64 µM
[44]
  GI50: 2.18 µM
  TGI: > 72.3 µM
[45]
  GI50: 2.35 µM
  TGI: 7.81 µM
[46]
  GI50: 2.92 µM
  TGI: > 72.3 µM
[47]
  GI50: 2.37 µM
  TGI: > 72.3 µM
[48]
  GI50: 2.57 µM
  TGI: > 72.3 µM
[49]
  GI50: 1.39 µM
  TGI: 3.47 µM
[50]
  GI50: 3.05 µM
  TGI: > 72.3 µM
[51]
  GI50: 2.75 µM
  TGI: > 72.3 µM
[52]
  GI50: 3.32 µM
  TGI: > 72.3 µM
[53]
  GI50: 2.4 µM
  TGI: > 72.3 µM
[54]
  GI50: 2.17 µM
  TGI: 7.89 µM
[55]
  GI50: 2.25 µM
  TGI: 9.2 µM
